Patent US11376302B2, “Methods for treating depression and major depressive disorder” (priority 2017, dated 2022)
Entries after “also recorded” stand apart in the source; their conditions may differ.

Key:
[1] = test system: global protein synthesis in the hippocampus; experiment: SUnSET measurement of global protein synthesis in brain tissue after injection; type: in vivo, mouse
Procedure: Protein synthesis was measured by the SUnSET method. After pharmacological manipulation, mice were sacrificed by cervical dislocation, brains were removed, and the hippocampi were rapidly dissected, immersed in liquid nitrogen, and stored at −80° C. until further use. Hippocampi were homogenized using 20 strokes of a pre-chilled glass homogenizer with 600 μl of lysis buffer containing 50 mM Tris, pH 7.8, 240 mM KCl, 10 mM MgCl2, 250 mM D-sucrose, 2% Triton X-100, 20 μg/ml emetine, 5 mM DTT, 100 U/ml Rnasin (Promega), and protease inhibitor mixture without EDTA (Roche). Samples were centrifuged for 5 min at 16,100 g at 4° C. and supernatant was incubated with 100 g/ml puromycin for 10 min at 4° C. An equal volume of 2×SDS sample buffer (10% glycerol, 5% β-mercaptoethanol, 4% SDS, 120 mM Tris-HCl, pH 6.8) was added to the samples and then boiled for 10 min at 100° C. Protein concentrations were determined using the BCA protein assay (Thermo), and samples were stored at −20° C. until further use. Puromycin incorporation was detected by western blotting using 12D10 antibody for puromycin (1:1000, Millipore).

[2] = cited from earlier work
mice [3] = experiment: Novelty suppressed feeding (NSF) test; type: in vivo, mouse; details: C57BL/6 mice, ketamine injection
Procedure: Novelty Suppressed Feeding (NSF)
After receiving the treatments mice were subjected to NSF. Briefly, mice were food deprived for 14 h and then placed in a temporary home cage for 30 min. During the test, mice were placed in a square arena 50×50 cm with bright room light. A food pellet was placed in the center of an open field. Each trial was 10 min in duration. Animal behavior was recorded, and latency to feeding (s) was measured.

mice [4] = experiment: Tail suspension test (TST); type: in vivo, mouse; details: C57BL/6 mice, Tatcont then ketamine, test 24 hours later
Procedure: Custom made clear hollow cylinders (4 cm length, 1.2 cm inner diameter, 1 g) from polycarbonate tubing were placed around the tails of mice to prevent tail climbing behavior. Tape was adhered to the tails of mice on one end, and the other end of the tape was adhered to a custom designed chamber with a white background. Mice were video recorded for 6 minute and the entire 6 minute session was scored for immobility. Total immobility time (seconds) is shown in the results.

mice [5] = experiment: Forced swim test (FST); type: in vivo, mouse
Procedure: After receiving treatments mice were subjected to FST. Briefly, mice were introduced into a transparent glass beaker (26 cm×18 cm) containing 4 liters deep water at 24° C. and were video-recorded for 6 minutes. The last 4 min were scored for immobility. Total immobility time (in seconds) is shown in the results.

SMILES | protein synthesis ([1]; anisomycin 120 mg/kg b.w.) | ketamine-induced protein synthesis ([1]; anisomycin 120 mg/kg b.w. with ketamine) | persistence of antidepressant effect ([2]; human patients, single intravenous administration) | reduction of depression in human patients ([2]; single intravenous administration) | side effects of infusions in humans ([2]; single or repeated infusions, lasting a few minutes to hours) | latency to feeding in the novelty suppressed feeding test (mice [3]) | immobility time in the TST (mice [4]) | immobility time in the FST (mice [5]; C57BL/6 mice, Tatcont then ketamine, test 24 hours later) | immobility time in the forced swim test (mice [5]; C57BL/6 mice, ketamine IP (5 mg per kg b.w. in Example 1), short-term test) | immobility time in the FST (mice [5]; WT littermates, 30 minutes after ketamine) | immobility time in FST (mice [5]; WT mice, 24 hours after ketamine injection) | immobility time in the FST (mice [5]; eEF2K-KO mice, 30 minutes after ketamine) | immobility time in FST (mice [5]; eEF2K-KO mice, 24 hours after injection) | immobility time in FST (mice [5]; ketamine 5 mg/kg b.w., FST 24 hours later, C57BL/6 mice) | immobility time in FST (mice [5]; ketamine 10 mg/kg b.w., FST 24 hours later, C57BL/6 mice)
COc1ccc(C[C@H]2NC[C@H](O)[C@H]2OC(C)=O)cc1 [anisomycin] | blocked protein synthesis | blocked | – | – | – | – | – | – | – | – | – | – | – | – | –
CNC1(c2ccccc2Cl)CCCCC1=O (stereo not drawn) [ketamine] | – | – | persists for many hours to days | sufficient to reduce depression | acute dissociative and psychotomimetic effects | reduced the latency to feeding | shorter immobility time | shorter immobility time | reduced the immobility time; also recorded: shorter immobility time | reduced the immobility time | reduced immobility time | no difference in immobility | no difference | shorter immobility time | shorter immobility time
